Experiments:
[1] = system: A549 cells; test: Cellular toxicity on A549 cells (CellTiter-Glo); type: cell-based; conditions: 24 hours; concentrations of up to 10 uM
[2] = Hepatocyte stability; type: in vitro ADME
Protocol: Time to inhibition refers to the time needed to inhibit the generation of NADH by 15-PGDH from the moment with drug is added into the reaction mix. Delta Tm refers to the shift in melting temperature of recombinant 15-PGDH in the presence of drug (with cofactor NADH also present). Concentration of Full Cell Line Reporter Induction refers to the concentration of drug that needs to be added to reporter cell line to achieve maximal induction of the 15-PGDH-luciferase gene fusion reporter cassette, as measured by luciferase assays. Hepatocyte stability refers to the half-life of compound in the presence of hepatocytes in culture. Toxicity refers to the concentration of compound needed to decrease cell numbers in a cell culture assay.

[3] = system: 15-PGDH mRNA; test: 15-PGDH mRNA levels by real-time PCR; type: cell-based
[4] = system: 15-PGDH-luciferase fusion reporter in V9m, LS174T and V503 cells; test: 15-PGDH-luciferase fusion gene reporter induction, stated for the three cell line backgrounds together; type: cell-based; conditions: V9m, LS174T, V503; FIG. 1
[5] = Survival of irradiated mice receiving a bone marrow transplant; type: in vivo, C57BL/6J mice
Description: The experimental design is depicted in FIG. 50.
Under the conditions of the mouse colony during this study, control mice receiving 100,000-500,000 cells are all dead between days 4-13 of study. […] Such activity would be of particular utility in settings, such as transplantation with umbilical cord stem cells, in which donor cell numbers are limited.

[6] = system: colon; test: Dextran sodium sulfate (DSS) induced colitis; type: in vivo, FVB mice
[7] = system: bone marrow; test: Bone marrow analysis of treated C57BL/6J mice; type: in vivo; conditions: IP 5 mg/kg or 20 mg/kg
Description: FIGS. […] Experimental conditions are noted on the figure.

[8] = Survival after whole body irradiation; type: in vivo, C57BL/6J mice
[9] = system: liver; test: Liver regeneration after partial hepatectomy; type: in vivo, mice

CCCC[S+]([O-])c1sc2nc(-c3cccs3)cc(-c3ccccc3)c2c1N (stereo not shown) [SW033291, 2-(butylsulfinyl)-4-phenyl-6-(thiophen-2-yl)thieno[2,3-b]pyridin-3-amine]
effect on CellTitre-Glo levels [1]: No effect on CellTitre-Glo levels | Hepatocyte stability ([2]; Table 4): Stable > | Hepatocyte stability ([2]; half-life in presence of hepatocytes in culture, Table 3): Stable > couple | 15-PGDH mRNA levels (real-time PCR) ([3]; V503 cells): slight increase in 15-PGDH mRNA | 15-PGDH mRNA levels (real-time PCR) ([3]; treated colon cancer cell lines): do not in general alter 15-PGDH mRNA levels | luciferase activity of cells expressing 15-PGDH luciferase fusion construct [4]: increase luciferase activity | number of surviving mice ([5]; 1 × 10^5 donor marrow cells, Day 2): 3 | number of surviving mice ([5]; 1 × 10^5 donor marrow cells, Day 3): 3 | number of surviving mice ([5]; 1 × 10^5 donor marrow cells, Day 4): 2 | number of surviving mice ([5]; 1 × 10^5 donor marrow cells, Day 5): 1 | number of surviving mice ([5]; 1 × 10^5 donor marrow cells, Day 6): 0 | number of surviving mice ([5]; 2 × 10^5 donor marrow cells, Day 2): 3 | number of surviving mice ([5]; 2 × 10^5 donor marrow cells, Day 3): 3 | number of surviving mice ([5]; 2 × 10^5 donor marrow cells, Day 4): 3 | number of surviving mice ([5]; 2 × 10^5 donor marrow cells, Day 5): 3 | number of surviving mice ([5]; 2 × 10^5 donor marrow cells, Day 6): 2 | number of surviving mice ([5]; 2 × 10^5 donor marrow cells, Day 7): 2 | number of surviving mice ([5]; 2 × 10^5 donor marrow cells, Day 8): 2 | number of surviving mice ([5]; 2 × 10^5 donor marrow cells, Day 9): 2 | number of surviving mice ([5]; 2 × 10^5 donor marrow cells, Day 10): 2 | number of surviving mice ([5]; 2 × 10^5 donor marrow cells, Day 11): 2 | number of surviving mice ([5]; 2 × 10^5 donor marrow cells, Day 12): 1 | number of surviving mice ([5]; 2 × 10^5 donor marrow cells, Day 13): 0 | number of surviving mice ([5]; 5 × 10^5 donor marrow cells, Day 2): 3 | number of surviving mice ([5]; 5 × 10^5 donor marrow cells, Day 3): 3 | number of surviving mice ([5]; 5 × 10^5 donor marrow cells, Day 4): 3 | number of surviving mice ([5]; 5 × 10^5 donor marrow cells, Day 5): 3 | number of surviving mice ([5]; 5 × 10^5 donor marrow cells, Day 6): 3 | number of surviving mice ([5]; 5 × 10^5 donor marrow cells, Day 7): 3 | number of surviving mice ([5]; 5 × 10^5 donor marrow cells, Day 8): 2 | number of surviving mice ([5]; 5 × 10^5 donor marrow cells, Day 9): 2 | number of surviving mice ([5]; 5 × 10^5 donor marrow cells, Day 10): 2 | number of surviving mice ([5]; 5 × 10^5 donor marrow cells, Day 11): 2 | number of surviving mice ([5]; 5 × 10^5 donor marrow cells, Day 12): 2 | number of surviving mice ([5]; 5 × 10^5 donor marrow cells, Day 13): 2 | number of surviving mice ([5]; 5 × 10^5 donor marrow cells, Day 19): 2 | number of surviving mice ([5]; 11 Gy, 5 mg/kg IP bid, 1 × 10^5 donor marrow cells, Day 1): 3 | number of surviving mice ([5]; 11 Gy, 5 mg/kg IP bid, 2 × 10^5 donor marrow cells, Day 1): 3 | number of surviving mice ([5]; 11 Gy, 5 mg/kg IP bid, 5 × 10^5 donor marrow cells, Day 1): 3 | survival of transplanted mice ([5]; mouse, in vivo): promoted survival of mice receiving a bone marrow transplant | change from baseline weight versus control ([6]; 22 days): greater weight at all time points | ulcer formation prevented ([6]; colonoscopy days 8, 11, 15): two-thirds | reduction of length of ulcerated mucosa ([6]; day 15): 61% | body weight and colon length versus control ([6]; day 22): greater body weight and greater colon lengths | MEICS scores versus control ([6]; days 8, 11 and 15): significantly less colitis activity | percent of SKL cells [7]: unchanged | number of mice surviving ([8]; 7 Gy, 5 mg/kg IP daily for 7 doses, Day 5): 3 | number of mice surviving ([8]; 7 Gy, Day 6): 3 | number of mice surviving ([8]; 7 Gy, Day 7): 3 | number of mice surviving ([8]; 7 Gy, Day 8): 3 | number of mice surviving ([8]; 7 Gy, Day 9): 3 | number of mice surviving ([8]; 7 Gy, Day 10): 3 | number of mice surviving ([8]; 7 Gy, Day 11): 3 | number of mice surviving ([8]; 7 Gy, Day 12): 3 | number of mice surviving ([8]; 7 Gy, Day 13): 3 | number of mice surviving ([8]; 7 Gy, Day 14): 3 | number of mice surviving ([8]; 7 Gy, Day 15): 3 | appearance of surviving mice ([8]; 7 Gy, Day 25 (cell wraps: Looks / Healthy)): Looks | number of mice surviving ([8]; 9 Gy, 5 mg/kg IP daily for 7 doses, Day 5): 3 | number of mice surviving ([8]; 9 Gy, Day 6): 3 | number of mice surviving ([8]; 9 Gy, Day 7): 3 | number of mice surviving ([8]; 9 Gy, Day 8): 3 | number of mice surviving ([8]; 9 Gy, Day 9): 3 | number of mice surviving ([8]; 9 Gy, Day 10): 3 | number of mice surviving ([8]; 9 Gy, Day 11): 3 | number of mice surviving ([8]; 9 Gy, Day 12): 2 | number of mice surviving ([8]; 9 Gy, Day 13): 2 | number of mice surviving ([8]; 9 Gy, Day 14): 1 | number of mice surviving ([8]; 9 Gy, Day 15): 0 | number of mice surviving ([8]; 11 Gy, 5 mg/kg 1 dose/daily for 7 days, Day 5): 3 | number of mice surviving ([8]; 11 Gy, 5 mg/kg 1 dose/daily, continuous every day, Day 5): 3 | number of mice surviving ([8]; 11 Gy, 5 mg/kg IP daily for 7 doses, Day 5): 3 | number of mice surviving ([8]; 11 Gy, 5 mg/kg, 7 days, 2 dose daily, Day 5): 3 | number of mice surviving ([8]; 11 Gy, 1 dose/daily for 7 days, Day 6): 3 | number of mice surviving ([8]; 11 Gy, 1 dose/daily for 7 days, Day 7): 3 | number of mice surviving ([8]; 11 Gy, 1 dose/daily for 7 days, Day 8): 2 | number of mice surviving ([8]; 11 Gy, 1 dose/daily for 7 days, Day 9): 1 | number of mice surviving ([8]; 11 Gy, 1 dose/daily for 7 days, Day 10): 0 | number of mice surviving ([8]; 11 Gy, 1 dose/daily, continuous every day, Day 6): 3 | number of mice surviving ([8]; 11 Gy, 1 dose/daily, continuous every day, Day 7): 3 | number of mice surviving ([8]; 11 Gy, 1 dose/daily, continuous every day, Day 8): 3 | number of mice surviving ([8]; 11 Gy, 1 dose/daily, continuous every day, Day 9): 2 | number of mice surviving ([8]; 11 Gy, 1 dose/daily, continuous every day, Day 10): 0 | number of mice surviving ([8]; 11 Gy, 7 days, 2 dose daily, Day 6): 3 | number of mice surviving ([8]; 11 Gy, 7 days, 2 dose daily, Day 7): 3 | number of mice surviving ([8]; 11 Gy, 7 days, 2 dose daily, Day 8): 3 | number of mice surviving ([8]; 11 Gy, 7 days, 2 dose daily, Day 9): 2 | number of mice surviving ([8]; 11 Gy, 7 days, 2 dose daily, Day 10): 0 | number of mice surviving ([8]; 11 Gy, Table 7, Day 6): 3 | number of mice surviving ([8]; 11 Gy, Table 7, Day 7): 3 | number of mice surviving ([8]; 11 Gy, Table 7, Day 8): 3 | number of mice surviving ([8]; 11 Gy, Table 7, Day 9): 2 | number of mice surviving ([8]; 11 Gy, Table 7, Day 10): 0 | longer survival than vehicle control, on average ([8]; 11 Gy, any of the dosing schedules): 1 to 2 days | serum ALT levels ([9]; 5 mg/kg IP bid, one mouse versus one control mouse): ALT values are lower | hepatic mitosis versus controls ([9]; days 3 and 4): significantly increased hepatic mitosis | BrdU positive (S-phase) cells in liver ([9]; post-operative day 2): clear increase in numbers of BrdU positive cells
